Source: patent US20250163104A1, “MACROCYCLIC IMMUNOMODULATORS” (priority 2021, published 2025)
Where a SMILES comes first, the peptide text is derived from it. Bridges are numbered along the chain shown (N, C = ends). [ ]: non-standard residue; d: D form. The star is where a group is joined. Bip(3'-COOH) = N[C@@H](Cc1ccc(-c2cccc(C(=O)O)c2)cc1)C(=O)O; Phe(4-COOH) = N[C@@H](Cc1ccc(C(=O)O)cc1)C(=O)O; Bip = N[C@@H](Cc1ccc(-c2ccccc2)cc1)C(=O)O; Phe(3-Me) = Cc1cccc(C[C@H](N)C(=O)O)c1; Val(3-OH) = CC(C)(O)[C@H](N)C(=O)O; Benzoyl(4-F) = O=C(c1ccc(F)cc1)*; 4Pal = N[C@@H](Cc1ccncc1)C(=O)O; Cha = N[C@@H](CC1CCCCC1)C(=O)O; dCha = N[C@H](CC1CCCCC1)C(=O)O; Carboxymethyl = O=C(O)C*; Orn = NCCC[C@H](N)C(=O)O; Pra = C#CC[C@H](N)C(=O)O; Dab = NCC[C@H](N)C(=O)O; Abu = CC[C@H](N)C(=O)O; Dap = NC[C@H](N)C(=O)O; NHCH2CH2OMe = COCCN*

Each molecule was assayed against T1, human PD-1 / PD-L1-Ig binding on Jurkat cell line over-expressing human PD-1 (Jurkat-PD-1) (Homo sapiens, UniProt Q15116) (assay: Jurkat-PD-1 Cell Binding High-Content Screening Assay (CBA)). Conditions: Jurkat HPD1_PDL1 IC50, Jurkat-PD-1 cells, PE-labeled PD-L1-Ig 20 nM final.
T1 construct: expressed in transfected cells; host or cells: Jurkat
T1 sequence (Q15116 25-288): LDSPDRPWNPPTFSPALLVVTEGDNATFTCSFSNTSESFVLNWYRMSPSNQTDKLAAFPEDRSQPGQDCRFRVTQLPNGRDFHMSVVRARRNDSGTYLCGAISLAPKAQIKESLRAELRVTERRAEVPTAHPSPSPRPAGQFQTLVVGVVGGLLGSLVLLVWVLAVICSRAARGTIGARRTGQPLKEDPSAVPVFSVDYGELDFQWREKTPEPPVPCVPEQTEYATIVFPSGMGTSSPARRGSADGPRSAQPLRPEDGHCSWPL
Type: cell-based
Method in brief: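 Jurkat-hPD-1 cells in DMEM with 10% fetal calf serum receive test compound and are held at 37° C for 2 h. PE-labeled PD-L1-Ig is added at 20 nM final and left for 1 hour. Cells are then fixed and Hoechst-stained, and binding is measured by imaging.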
For `CC(C)C[C@@H]1NC(=O)[C@H](Cc2c[nH]c3ccccc23)NC(=O)[C@H](CC(=O)O)NC(=O)[C@H](Cc2ccc(OCC(=O)O)cc2)NC(=O)[C@H](CN)NC(=O)CSC[C@@H](C(=O)NCC(N)=O)NC(=O)[C@H](CO)NC(=O)[C@H](C(C)C)NC(=O)[C@H](CC(C)C)NC(=O)[C@H](CC(N)=O)NC(=O)[C@@H](CC(C)C)NC(=O)[C@H](CCN)NC(=O)[C@H](C(C)C)NC(=O)[C@H](Cc2ccc(-c3ccccc3)cc2)NC1=O` [Compound 1280] ({CH2CO}-[Dap]Y(Carboxymethyl)DWL[Bip]V[Dab][dL]NLVSCG-NH2; thioether N-14), the IC50 was 9.7 nM.
Work on `Cc1cccc(C[C@@H]2NC(=O)[C@H](CC(=O)O)NC(=O)[C@H](Cc3ccncc3)NC(=O)[C@H](Cc3ccc(OCC(=O)O)cc3)NC(=O)CSC[C@@H](C(=O)NCC(N)=O)NC(=O)[C@H](CO)NC(=O)[C@H](C(C)C)NC(=O)[C@H](CC3CCCCC3)NC(=O)[C@H](Cc3c[nH]cn3)NC(=O)[C@@H](CC(C)C)NC(=O)[C@H](CCCN)NC(=O)[C@H](C(C)C)NC(=O)[C@H](Cc3ccc(-c4ccccc4)cc3)NC(=O)[C@H](CC(C)C)NC2=O)c1` [Compound 1585] ({CH2CO}-Y(Carboxymethyl)[4Pal]D[Phe(3-Me)]L[Bip]V[Orn][dL]H[Cha]VSCG-NH2; thioether N-14) yielded an IC50 of 50.4 nM.

Same assay, conditions: Jurkat-PD-1 cells, PE-labeled PD-L1-Ig 20 nM final; read-out: Jurkat HPD1_PDL1 IC50
`COCCNC(=O)[C@H](CCN)NC(=O)[C@@H]1CSCC(=O)N[C@@H](Cc2ccncc2)C(=O)N[C@@H](Cc2ccc(C(=O)O)cc2)C(=O)N[C@@H](CC(=O)O)C(=O)N[C@@H](Cc2cccc(C)c2)C(=O)N[C@@H](Cc2ccc(OCC(=O)O)cc2)C(=O)N[C@@H](Cc2ccc(-c3ccccc3)cc2)C(=O)N[C@@H](Cc2ccc(OCC(=O)O)cc2)C(=O)N[C@@H](CCCN)C(=O)N[C@H](CC(C)C)C(=O)N[C@@H](CCN)C(=O)N[C@@H](CC2CCCCC2)C(=O)N[C@@H](C(C)(C)O)C(=O)N[C@@H](CO)C(=O)N1` [Compound 2076] ({CH2CO}-[4Pal][Phe(4-COOH)]D[Phe(3-Me)]Y(Carboxymethyl)[Bip]Y(Carboxymethyl)[Orn][dL][Dab][Cha][Val(3-OH)]SC[Dab]-NHCH2CH2OMe; thioether N-14) gave an IC50 of 240 nM.
For `CC(C)[C@@H]1NC(=O)[C@H](Cc2c[nH]c3ccccc23)NC(=O)[C@H](CC(=O)O)NC(=O)[C@H](Cc2ccncc2)NC(=O)[C@H](Cc2ccc(OCC(=O)O)cc2)NC(=O)CSC[C@@H](C(=O)N[C@@H](C)C(N)=O)NC(=O)[C@H]([C@@H](C)O)NC(=O)[C@H](C(C)C)NC(=O)[C@H](CC2CCCCC2)NC(=O)[C@H](CCN)NC(=O)[C@@H](CC2CCCCC2)NC(=O)[C@H](CCCN)NC(=O)[C@H](C(C)C)NC(=O)[C@H](Cc2ccc(-c3ccccc3)cc2)NC1=O` [Compound 1637] ({CH2CO}-Y(Carboxymethyl)[4Pal]DWV[Bip]V[Orn][dCha][Dab][Cha]VTCA-NH2; thioether N-14), the IC50 was 32.7 nM.
Work on `CCCC[C@H]1NC(=O)[C@H](CCCN)NC(=O)[C@H](C(C)C)NC(=O)[C@H](Cc2ccc(-c3ccccc3)cc2)NC(=O)[C@H](C(C)C)NC(=O)[C@H](Cc2c[nH]c3ccccc23)NC(=O)[C@H](CC(=O)O)NC(=O)[C@H](Cc2ccncc2)NC(=O)[C@H](CN)NC(=O)CSC[C@@H](C(=O)N[C@@H](C)C(N)=O)NC(=O)[C@H]([C@@H](C)O)NC(=O)[C@H](C(C)C)NC(=O)[C@H](CC2CCCCC2)NC(=O)[C@H](CCN)NC1=O` [Compound 1695] yielded an IC50 of 34.4 nM.
`CC[C@@H]1NC(=O)[C@H](Cc2c[nH]c3ccccc23)NC(=O)[C@H](CC(=O)O)NC(=O)[C@H](Cc2ccc(OCC(=O)O)cc2)NC(=O)[C@H](CN)NC(=O)CSC[C@@H](C(=O)N[C@@H](C)C(N)=O)NC(=O)[C@H]([C@@H](C)O)NC(=O)[C@H](C(C)C)NC(=O)[C@H](CC2CCCCC2)NC(=O)[C@H](CCN)NC(=O)[C@@H](CC(C)C)NC(=O)[C@H](CCCN)NC(=O)[C@H]([C@@H](C)CC)NC(=O)[C@H](Cc2ccc(-c3ccccc3)cc2)NC1=O` [Compound 1721] ({CH2CO}-[Dap]Y(Carboxymethyl)DW[Abu][Bip]I[Orn][dL][Dab][Cha]VTCA-NH2; thioether N-14) showed an IC50 of 11.3 nM.
Work on `CC(C)C[C@H]1NC(=O)[C@H](CCCN)NC(=O)[C@H](CCC(=O)O)NC(=O)[C@H](Cc2ccc(-c3ccccc3)cc2)NC(=O)[C@H](C(C)C)NC(=O)[C@H](Cc2c[nH]c3ccccc23)NC(=O)[C@H](CC(=O)O)NC(=O)[C@H](Cc2ccc(OCC(=O)O)cc2)NC(=O)[C@H](CN)NC(=O)CSC[C@@H](C(=O)N[C@@H](C)C(N)=O)NC(=O)[C@H]([C@@H](C)O)NC(=O)[C@H](C(C)C)NC(=O)[C@H](CC2CCCCC2)NC(=O)[C@H](CC(=O)O)NC1=O` [Compound 1514] ({CH2CO}-[Dap]Y(Carboxymethyl)DWV[Bip]E[Orn][dL]D[Cha]VTCA-NH2; thioether N-14) yielded an IC50 of 34.8 nM.
With `C#CC[C@H](NC(=O)[C@H](CCN)NC(=O)[C@@H]1CSCC(=O)N[C@@H](CCCN)C(=O)N[C@@H](Cc2ccc(OCC(=O)O)cc2)C(=O)N[C@@H](CC(=O)O)C(=O)N[C@@H](Cc2cccc(C)c2)C(=O)N[C@@H](Cc2ccc(OCC(=O)O)cc2)C(=O)N[C@@H](Cc2ccc(-c3ccccc3)cc2)C(=O)N[C@@H](Cc2ccc(OCC(=O)O)cc2)C(=O)N[C@@H](CCCN)C(=O)N[C@H](CC(C)C)C(=O)N[C@@H](CCN)C(=O)N[C@@H](CC2CCCCC2)C(=O)N[C@@H](C(C)(C)O)C(=O)N[C@@H]([C@@H](C)O)C(=O)N1)C(N)=O` [Compound 1854] ({CH2CO}-[Orn]Y(Carboxymethyl)D[Phe(3-Me)]Y(Carboxymethyl)[Bip]Y(Carboxymethyl)[Orn][dL][Dab][Cha][Val(3-OH)]TC[Dab][Pra]-NH2; thioether N-14) the IC50 was 15.1 nM.
In the case of `CC(C)C[C@H]1NC(=O)[C@H](CCCN)NC(=O)[C@H](CCC(=O)O)NC(=O)[C@H](Cc2ccc(-c3ccccc3)cc2)NC(=O)[C@H](C(C)C)NC(=O)[C@H](Cc2c[nH]c3ccccc23)NC(=O)[C@H](CC(=O)O)NC(=O)[C@H](Cc2ccc(-c3cccc(C(=O)O)c3)cc2)NC(=O)[C@H](Cc2ccccc2)NC(=O)CSC[C@@H](C(=O)N[C@@H](C)C(N)=O)NC(=O)[C@H]([C@@H](C)O)NC(=O)[C@H](C(C)C)NC(=O)[C@H](CC2CCCCC2)NC(=O)[C@H](CCN)NC1=O` [Compound 2161] ({CH2CO}-F[Bip(3'-COOH)]DWV[Bip]E[Orn][dL][Dab][Cha]VTCA-NH2; thioether N-14), the IC50 is reported as 27 nM.
`CC(C)C[C@H]1NC(=O)[C@H](CCCN)NC(=O)[C@H](C(C)C)NC(=O)[C@H](Cc2ccc(-c3ccccc3)cc2)NC(=O)[C@H](C(C)C)NC(=O)[C@H](Cc2c[nH]c3ccccc23)NC(=O)[C@H](CC(=O)O)NC(=O)[C@H](Cc2ccc(C(=O)O)cc2)NC(=O)[C@H](Cc2ccc(OCC(=O)O)cc2)NC(=O)CSC[C@@H](C(=O)N[C@@H](C)C(N)=O)NC(=O)[C@H](CCCCN)NC(=O)[C@H](C(C)C)NC(=O)[C@H](CC2CCCCC2)NC(=O)[C@H](CCN)NC1=O` [Compound 1745] ({CH2CO}-Y(Carboxymethyl)[Phe(4-COOH)]DWV[Bip]V[Orn][dL][Dab][Cha]VKCA-NH2; thioether N-14) showed an IC50 of 4 nM.
Molecule `CCC(C)[C@@H]1NC(=O)[C@H](Cc2ccc(-c3ccccc3)cc2)NC(=O)[C@H](C(C)C)NC(=O)[C@H](Cc2cccc(C)c2)NC(=O)[C@H](CC(=O)O)NC(=O)[C@H](Cc2ccc(-c3cccc(C(=O)O)c3)cc2)NC(=O)[C@H](Cc2ccc(OCC(=O)O)cc2)NC(=O)CSC[C@@H](C(=O)N[C@@H](C)C(N)=O)NC(=O)[C@H]([C@@H](C)O)NC(=O)[C@H](C(C)C)NC(=O)[C@H](CC2CCCCC2)NC(=O)[C@H](CCN)NC(=O)[C@@H](CC(C)C)NC(=O)[C@H](CCCN)NC1=O` (some centres unmarked) [Compound 2225] has an IC50 of 182 nM.
For `Cc1cccc(C[C@@H]2NC(=O)[C@H](CC(=O)O)NC(=O)[C@H](Cc3ccc(OCC(=O)O)cc3)NC(=O)[C@H](CNC(=O)c3ccc(F)cc3)NC(=O)CSC[C@@H](C(N)=O)NC(=O)[C@H]([C@@H](C)O)NC(=O)[C@H](C(C)C)NC(=O)[C@H](CC3CCCCC3)NC(=O)[C@H](CCN)NC(=O)[C@@H](CC(C)C)NC(=O)[C@H](CCCN)NC(=O)[C@H](Cc3ccc(OCC(=O)O)cc3)NC(=O)[C@H](Cc3ccc(-c4ccccc4)cc3)NC(=O)[C@H](Cc3ccc(O)cc3)NC2=O)c1` [Compound 2048] ({CH2CO}-[Dap](Benzoyl(4-F))Y(Carboxymethyl)D[Phe(3-Me)]Y[Bip]Y(Carboxymethyl)[Orn][dL][Dab][Cha]VTC-NH2; thioether N-14), the IC50 was 40.2 nM.
`CCNC(=O)[C@H](C)NC(=O)[C@@H]1CSCC(=O)N[C@@H](Cc2ccncc2)C(=O)N[C@@H](Cc2ccc(C(=O)O)cc2)C(=O)N[C@@H](CC(=O)O)C(=O)N[C@@H](Cc2cccc(C)c2)C(=O)N[C@@H](C(C)C)C(=O)N[C@@H](Cc2ccc(-c3ccccc3)cc2)C(=O)N[C@@H]([C@@H](C)CC)C(=O)N[C@@H](CCCN)C(=O)N[C@H](CC(C)C)C(=O)N[C@@H](CCN)C(=O)N[C@@H](CC2CCCCC2)C(=O)N[C@@H](C(C)C)C(=O)N[C@@H]([C@@H](C)O)C(=O)N1` [Compound 2004] was tested, and the IC50 was 42.1 nM.
`CC(C)C[C@H]1NC(=O)[C@H](CCCN)NC(=O)[C@H](CCC(=O)O)NC(=O)[C@H](Cc2ccc(-c3ccccc3)cc2)NC(=O)[C@H](C(C)C)NC(=O)[C@H](Cc2c[nH]c3ccccc23)NC(=O)[C@H](CC(=O)O)NC(=O)[C@H](Cc2ccc(C(=O)O)cc2)NC(=O)[C@H](Cc2ccc(OCC(=O)O)cc2)NC(=O)CSC[C@@H](C(=O)N[C@@H](C)C(N)=O)NC(=O)[C@H]([C@@H](C)O)NC(=O)[C@H](C(C)C)NC(=O)[C@H](CC2CCCCC2)NC(=O)[C@H](CCN)NC1=O` [Compound 1427] gave an IC50 of 9.7 nM.
